Entries after “also recorded” stand apart in the source; their conditions may differ.

One series relates to I/R mice retina. Put plainly: retinal ischemia/reperfusion injury model in mouse eyes. It is filed as in vivo. The protocol: The function of retinal ganglion cells (RGCs) can be non-invasively assessed by pattern electroretinogram (PERG) a technique that emphasizes the activity of inner retina neurons. The amplitude of PERG reflects the degree of apparent damage by RGCs. A murine model of ocular stroke was employed to evaluate the function of […] upon administration of SA-10. After a single intravitreal injection of 100 μM of SA-10 to the left eye of mice (C57BL/6J, 12 weeks old, female) having undergone ischemia reperfusion (I/R) procedure, standard PERG was analyzed 1 week post I/R to determine whether compound SA-10 could prevent PERG deficits (FIGS. 9A & 9B). […] However, there was a significant decrease in PBS treated mice compared to PERG amplitudes from sham mice (14.8±1.4 μV, n=5). As expected, compound SA-10 injection increased PERG amplitude compared to PBS-treated I/R mice (21±1.4 μV, n=5, p<0.05 vs. I/R+PBS treated mice; values signify mean±SEM).
Ischemic/reperfusion injury model in mouse eyes. Mice (C57Bl6/J, 12 weeks, n=5) were anesthetized and the ischemic/reperfusion (I/R) injury was performed on left eye after it was numbed with proparacaine followed by intravitreal injection of 2 μl of […] of compound SA-10 formulated in PBS (I/R+SA-10 group) or only 2 μl PBS to left eye (I/R+PBS group) at days 0. At day 7, pattern ERG was performed with the JORVEC System. SD-OCT was done to measure the change in overall thickness of retina layers and flash ERG was done to measure the function of bipolar cells (b-wave) as well as photoreceptor cells (a-wave) after 28 days. Pattern ERG was performed to measure the function of RGCs. Right eye was served as contralateral control.

Series [1] deals with plasminogen activating inhibitor-1 (PAI-1). Put plainly: DEX induced PAI-1 in human trabecular meshwork cells (western blot). Format: cell-based. Particulars: DEX 100 nM, compound 100 μM, 48 hr, conditioned medium. The protocol:
Briefly, cells were plated at a density of 2×10^5 cells per well and were treated with DEX (100 nM) or vehicle (ethanol) in the presence of 100 μM of SA-1, SA-2, SA-9, SA-10 and PBA (positive control) for 48 hr. Conditioned medium was collected for western blot. Experiments were performed in triplicates.
In vitro plasminogen activating inhibitor-1 (PAI-1) activity. Human primary trabecular meshwork (hTM) cells were plated in 6-well plates at a density of 2×10^5 cells per well and were treated with dexamethasone (DEX, 100 nM) or vehicle (ethanol) in the presence of test compounds (100 μM) for 48 hr. Conditioned medium was collected for Western Blot. Experiments were performed in triplicates […].

The next series has as its system ROS in HUVEC cells. As to the kind of experiment: ROS scavenging in HUVEC under oxidative stress (DCFDA assay). Particulars: H2O2 induced oxidative stress, SA-9 at 0.05 μM. It is filed as cell-based, Human.
Series [2] deals with human trabecular meshwork cells. As to the kind of experiment: cytoprotection of human trabecular meshwork cells under TBHP induced oxidative stress. Particulars: TBHP (300 μM) induced oxidative stress. It is filed as cell-based.
In the next series the test system is endothelial cells. As to the kind of experiment: transwell chemotaxis EC migration under oxidative stress. Format: cell-based, Human. The protocol: Cell migration studies. Transwell chemotaxis migration studies were conducted to study effects of SA-2 and SA-10 drugs on the migration of endothelial cells under stress conditions. To this, ECs were seeded at 50,000 cells/cm^2 on upper compartment (low serum media with 200 μM H2O2) and attracted to migrate through 8 μm-pore membrane by chemotaxis (SA compounds dissolved in low serum media with 200 μM H2O2) added in lower compartment. At 12 hours, migrated cells were fixed with 4% paraformaldehyde and stained with crystal violet prior to imaging and counting by Cell counter on ImageJ.

Turning to `Nc1c[n+](C2CCS(=O)(=O)CC2)no1` [SA-10], in the series on I/R mice retina (1 week post I/R, single intravitreal injection 100 μM, mean±SEM, n=5), the PERG amplitude came to 21±1.4 μV. Also, in the series with I/R mice retina (after I/R), the “retinal layer thickness by SD-OCT” value is reported as “maintenance of retinal layer thickness”. Further, the “ERG amplitude (a- and b-wave) damage after I/R” value in the series on I/R mice retina (flash ERG 28 days post-I/R) is recorded as “significantly reversed these damages”. Moreover, the “protein nitrosylation in retina” value in the series with I/R mice retina (intravitreal dosing of 2%) is listed as “doesn't cause any significant protein nitrosylation”. Further, in the series on I/R mice retina (single intravitreal injection), the “retina protection against ischemic stroke and reperfusion” value is “protective to retina”. Moreover, in series [1], the “DEX induced PAI-1” value was “showed inhibition; also recorded: decreased DEX induced increase in PAI-I level”. Also, in the series on ROS in HUVEC cells, the “ROS scavenging activity in DCFDA assay” value is “didn't show any significant ROS scavenging activity”. Also, the cytoprotective activity result in series [2] was “cytoprotective activity”. The EC migration entry in the series on endothelial cells is reported as “induce EC migration; also recorded: performed comparably to SA-2”. For the same compound, the “EC migration (FIG. 6)” value with endothelial cells (0.5 μM, transwell) was “induce EC migration”.
